In patent US8969565B2, “Imidazo[1,2-b]pyridazine-based compounds, compositions comprising them, and methods of their use” (Lexicon Pharmaceuticals, Inc., priority 2012, dated 2015):

Target: T1, AAK1 (Homo sapiens, UniProt Q2M2I8)
T1 construct: HA; expressed in transfected cells; host or cells: HEK293F
Test: HEK281 cell-based assay (phospho-mu2 Western blot in transfected HEK293F cells)
Details: 3 hours incubation, read-out: CBA IC50
Procedure, shortened: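 HEK293F cells co-transfected with full-length human AAK1/HA and Flag/AP2M1 were treated next day with 5 compound concentrations (3-fold dilutions) in DMEM+0.5% FBS for 3 hours at 37° C. Lysates were Western blotted for phospho-mu2, with total mu2 detected by anti-Flag.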

T1 sequence (Q2M2I8 1-863 isoform Q2M2I8-2): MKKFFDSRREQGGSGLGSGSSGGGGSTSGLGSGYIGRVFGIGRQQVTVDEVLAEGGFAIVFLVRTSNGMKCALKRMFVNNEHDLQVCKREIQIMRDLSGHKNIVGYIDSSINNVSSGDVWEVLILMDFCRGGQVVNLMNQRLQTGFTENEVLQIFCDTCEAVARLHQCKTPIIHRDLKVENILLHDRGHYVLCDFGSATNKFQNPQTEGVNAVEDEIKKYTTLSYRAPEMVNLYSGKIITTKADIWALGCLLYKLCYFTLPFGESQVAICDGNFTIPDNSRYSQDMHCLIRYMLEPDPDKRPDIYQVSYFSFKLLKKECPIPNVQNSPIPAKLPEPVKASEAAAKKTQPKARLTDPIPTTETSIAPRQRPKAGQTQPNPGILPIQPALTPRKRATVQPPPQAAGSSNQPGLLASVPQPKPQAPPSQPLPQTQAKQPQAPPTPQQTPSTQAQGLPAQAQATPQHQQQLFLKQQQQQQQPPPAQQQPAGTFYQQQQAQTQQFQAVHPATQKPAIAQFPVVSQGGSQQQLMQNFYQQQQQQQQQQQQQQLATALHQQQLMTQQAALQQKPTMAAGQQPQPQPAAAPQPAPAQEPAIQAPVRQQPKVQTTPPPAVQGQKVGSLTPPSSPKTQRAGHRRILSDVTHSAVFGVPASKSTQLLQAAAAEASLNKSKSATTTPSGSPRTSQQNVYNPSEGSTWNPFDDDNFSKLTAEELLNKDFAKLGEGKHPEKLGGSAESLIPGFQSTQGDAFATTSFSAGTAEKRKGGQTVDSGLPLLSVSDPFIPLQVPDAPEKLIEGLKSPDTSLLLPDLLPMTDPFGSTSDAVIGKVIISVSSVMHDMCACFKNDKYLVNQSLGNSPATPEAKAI

SMILES | IC50
CCOC(=O)N(C)[C@H]1CCN(c2ccc3ncc(-c4ccc(C)nc4OC)n3n2)C1 [(S)-ethyl (1-(3-(2-methoxy-6-methylpyridin-3-yl)imidazo[1,2-b]pyridazin-6-yl)pyrrolidin-3-yl)(methyl)carbamate] | ≤ 100 nM
COc1ccccc1-c1cnc2ccc(NC[C@@H]3CCCN3C(=O)OC(C)C)nn12 [(S)-isopropyl 2-(((3-(2-methoxyphenyl)imidazo[1,2-b]pyridazin-6-yl)amino)methyl)pyrrolidine-1-carboxylate] | ≤ 10 nM
COc1cnccc1-c1cnc2ccc(NC[C@@H]3CCCN3C(=O)OC(C)C)nn12 [(S)-isopropyl 2-(((3-(3-methoxypyridin-4-yl)imidazo[1,2-b]pyridazin-6-yl)amino)methyl)pyrrolidine-1-carboxylate] | ≤ 10 nM
CC(C)OC(=O)N1CCC[C@H]1CNc1ccc2ncc(-c3ccc(CN)cc3)n2n1 [(S)-isopropyl 2-(((3-(4-(aminomethyl)phenyl)imidazo[1,2-b]pyridazin-6-yl)amino)methyl)pyrrolidine-1-carboxylate] | ≤ 10 nM
C=C(C)c1cnc2ccc(NC[C@@H]3CCCN3C(=O)OC(C)C)nn12 [(S)-isopropyl 2-(((3-(prop-1-en-2-yl)imidazo[1,2-b]pyridazin-6-yl)amino)methyl)pyrrolidine-1-carboxylate] | ≤ 100 nM
CC(C)OC(=O)N1CCC[C@H]1CNc1ccc2ncc(Br)n2n1 [(S)-isopropyl 2-(((3-bromoimidazo[1,2-b]pyridazin-6-yl)amino)methyl)pyrrolidine-1-carboxylate] | ≤ 1000 nM
CC(C)OC(=O)N1CCC[C@H]1CNc1ccc2ncc(C3CC3)n2n1 [(S)-isopropyl 2-(((3-cyclopropylimidazo[1,2-b]pyridazin-6-yl)amino)methyl)pyrrolidine-1-carboxylate] | ≤ 1000 nM
C=Cc1cnc2ccc(NC[C@@H]3CCCN3C(=O)OC(C)C)nn12 [(S)-isopropyl 2-(((3-vinylimidazo[1,2-b]pyridazin-6-yl)amino)methyl)pyrrolidine-1-carboxylate] | ≤ 10 nM
CC(C)OC(=O)N(C)CCNc1ccc2ncc(-c3ccc([C@@H]4CCCN4)cc3)n2n1 [(S)-isopropyl methyl(2-((3-(4-(pyrrolidin-2-yl)phenyl)imidazo[1,2-b]pyridazin-6-yl)amino)ethyl)carbamate] | ≤ 100 nM
COC(=O)N1CCC[C@H]1CNc1ccc2ncc(-c3ccccc3OC)n2n1 [(S)-methyl 2-(((3-(2-methoxyphenyl)imidazo[1,2-b]pyridazin-6-yl)amino)methyl)pyrrolidine-1-carboxylate] | ≤ 100 nM
COC(=O)N1CCC[C@H]1CNc1ccc2ncc(-c3ccncc3OC)n2n1 [(S)-methyl 2-(((3-(3-methoxypyridin-4-yl)imidazo[1,2-b]pyridazin-6-yl)amino)methyl)pyrrolidine-1-carboxylate] | ≤ 100 nM
COC(=O)N1CCC[C@H]1CNc1ccc2ncc(-c3ccc(CN)cc3)n2n1 [(S)-methyl 2-(((3-(4-(aminomethyl)phenyl)imidazo[1,2-b]pyridazin-6-yl)amino)methyl)pyrrolidine-1-carboxylate] | ≤ 100 nM
COC(=O)N1CCC[C@H]1CNc1ccc2ncc(Br)n2n1 [(S)-methyl 2-(((3-bromoimidazo[1,2-b]pyridazin-6-yl)amino)methyl)pyrrolidine-1-carboxylate] | ≤ 1000 nM
CC(C)(C)COC(=O)N1CCC[C@H]1CNc1ccc2ncc(Br)n2n1 [(S)-neopentyl 2-(((3-bromoimidazo[1,2-b]pyridazin-6-yl)amino)methyl)pyrrolidine-1-carboxylate] | ≤ 100 nM
COc1ccccc1-c1cnc2ccc(NC[C@@H]3CCCN3C(=O)OC(C)(C)C)nn12 [(S)-tert-butyl 2-(((3-(2-methoxyphenyl)imidazo[1,2-b]pyridazin-6-yl)amino)methyl)pyrrolidine-1-carboxylate] | ≤ 10 nM
COc1cnccc1-c1cnc2ccc(NC[C@@H]3CCCCN3C(=O)OC(C)(C)C)nn12 [(S)-tert-butyl 2-(((3-(3-methoxypyridin-4-yl)imidazo[1,2-b]pyridazin-6-yl)amino)methyl)piperidine-1-carboxylate] | ≤ 100 nM
CC(C)(C)OC(=O)N1CCCC[C@H]1CNc1ccc2ncc(-c3ccc(CN)cc3)n2n1 [(S)-tert-butyl 2-(((3-(4-(aminomethyl)phenyl)imidazo[1,2-b]pyridazin-6-yl)amino)methyl)piperidine-1-carboxylate] | ≤ 10 nM
CC(C)(C)OC(=O)N1CCCC[C@H]1CNc1ccc2ncc(-c3ccncc3)n2n1 [(S)-tert-butyl 2-(((3-(pyridin-4-yl)imidazo[1,2-b]pyridazin-6-yl)amino)methyl)piperidine-1-carboxylate] | ≤ 100 nM
CC(C)(C)OC(=O)N1CCC[C@H]1CNc1ccc2ncc(C(F)(F)F)n2n1 [(S)-tert-butyl 2-(((3-(trifluoromethyl)imidazo[1,2-b]pyridazin-6-yl)amino)methyl)pyrrolidine-1-carboxylate] | ≤ 100 nM
CC(C)(C)OC(=O)N1CCC[C@H]1CNc1ccc2ncc(Br)n2n1 [(S)-tert-butyl 2-(((3-bromoimidazo[1,2-b]pyridazin-6-yl)amino)methyl)pyrrolidine-1-carboxylate] | ≤ 100 nM
CC(C)(C)OC(=O)N1CCC[C@H]1CNc1ccc2ncc(Cl)n2n1 [(S)-tert-butyl 2-(((3-chloroimidazo[1,2-b]pyridazin-6-yl)amino)methyl)pyrrolidine-1-carboxylate] | ≤ 100 nM
CCc1cnc2ccc(NC[C@@H]3CCCN3C(=O)OC(C)(C)C)nn12 [(S)-tert-butyl 2-(((3-ethylimidazo[1,2-b]pyridazin-6-yl)amino)methyl)pyrrolidine-1-carboxylate] | ≤ 100 nM
CC(C)(C)OC(=O)N1CCC[C@H]1CNc1ccc2ncc(I)n2n1 [(S)-tert-butyl 2-(((3-iodoimidazo[1,2-b]pyridazin-6-yl)amino)methyl)pyrrolidine-1-carboxylate] | ≤ 10 nM
COc1cnccc1-c1cnc2ccc(NC[C@@H]3CCN(C(=O)OC(C)(C)C)C3)nn12 [(S)-tert-butyl 3-(((3-(3-methoxypyridin-4-yl)imidazo[1,2-b]pyridazin-6-yl)amino)methyl)pyrrolidine-1-carboxylate] | ≤ 1000 nM
CC(C)(C)OC(=O)N1CC[C@@H](CNc2ccc3ncc(-c4ccc(CN)cc4)n3n2)C1 [(S)-tert-butyl 3-(((3-(4-(aminomethyl)phenyl)imidazo[1,2-b]pyridazin-6-yl)amino)methyl)pyrrolidine-1-carboxylate] | ≤ 100 nM
CC(C)(C)OC(=O)N1CC[C@@H](CNc2ccc3ncc(Br)n3n2)C1 [(S)-tert-butyl 3-(((3-bromoimidazo[1,2-b]pyridazin-6-yl)amino)methyl)pyrrolidine-1-carboxylate] | ≤ 1000 nM
CCCCNc1ccc2ncc(-c3ccc4cnccc4c3)n2n1 [Butyl-(3-isoquinolin-6-yl-imidazo[1,2-b]pyridazin-6-yl)amine] | ≤ 100 nM
CCOC(=O)CCCNc1ccc2ncc(-c3ccc(C(C)=O)s3)n2n1 [Ethyl 4-((3-(5-acetylthiophen-2-yl)imidazo[1,2-b]pyridazin-6-yl)amino)butanoate] | ≤ 100 nM
CN(CCNc1ccc2ncc(-c3ccc(CN)cc3)n2n1)c1ccccc1 [N1-(3-(4-(aminomethyl)phenyl)imidazo[1,2-b]pyridazin-6-yl)-N2-methyl-N2-phenylethane-1,2-diamine] | ≤ 100 nM
